Experiments:
[1] = molecular target: T1, Type-2 angiotensin II receptor (Rattus norvegicus, UniProt P35351); experiment: In vitro binding affinity determined by its ability to displace the specific binding ligand [125I]-Sar1, Ile8-AII from AT2 receptor in rat midbrain membranes; format: cell membranes, Membrane
T1 sequence (P35351 whole entry): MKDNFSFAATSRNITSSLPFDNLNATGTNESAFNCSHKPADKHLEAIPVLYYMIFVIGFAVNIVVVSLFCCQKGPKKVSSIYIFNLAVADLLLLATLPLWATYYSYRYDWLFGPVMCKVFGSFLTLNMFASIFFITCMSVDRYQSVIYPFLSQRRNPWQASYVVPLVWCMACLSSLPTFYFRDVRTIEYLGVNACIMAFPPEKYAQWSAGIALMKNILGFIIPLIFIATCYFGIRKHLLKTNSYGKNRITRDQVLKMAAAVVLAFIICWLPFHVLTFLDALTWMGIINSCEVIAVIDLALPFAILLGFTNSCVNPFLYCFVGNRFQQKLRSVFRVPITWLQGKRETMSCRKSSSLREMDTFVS

[2] = molecular target: T2, Type-1 angiotensin II receptor (Oryctolagus cuniculus, UniProt P34976); experiment: In vitro binding affinity determined by its ability to displace the specific binding ligand [125I]-Sar1, Ile8-AII from Angiotensin II receptor, type 1 in rabbit aorta membranes; format: cell membranes, Membrane
T2 sequence (P34976 whole entry): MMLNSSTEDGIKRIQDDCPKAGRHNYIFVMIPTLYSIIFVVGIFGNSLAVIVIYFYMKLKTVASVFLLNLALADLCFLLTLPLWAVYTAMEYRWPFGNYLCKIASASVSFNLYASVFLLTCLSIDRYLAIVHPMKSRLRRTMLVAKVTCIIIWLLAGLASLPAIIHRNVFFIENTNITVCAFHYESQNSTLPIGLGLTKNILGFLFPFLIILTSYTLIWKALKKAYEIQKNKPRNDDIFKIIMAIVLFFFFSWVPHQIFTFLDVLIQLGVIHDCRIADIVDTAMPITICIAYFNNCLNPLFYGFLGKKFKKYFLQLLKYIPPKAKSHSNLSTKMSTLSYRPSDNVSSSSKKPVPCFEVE

Rattus norvegicus [3] = experiment: Effective dose in rat after peroral administration; Range is (0.001 - 0.167); format: functional; details: po
Rattus norvegicus [4] = experiment: Inhibition on AII-induced pressor responses in rats at a dose of 0.3 upon po administration at duration of >6 hr; format: functional
Rattus norvegicus [5] = experiment: Effective dose in rat after intravenous administration; Range is (0.062 - 0.076); format: functional
Canis familiaris [6] = experiment: Inhibition on AII-induced pressor responses in Beagle dogs at a dose of 0.3 upon iv administration at duration of >6 hr; format: functional, Canis lupus familiaris
Rattus norvegicus [7] = experiment: Inhibition on AII-induced pressor responses in rats at a dose of 0.3 upon iv administration at duration of >6 hr; format: functional
Rattus norvegicus [8] = experiment: Inhibitory activity against AII-induced pressor responses in rats at a dose of 0.3 upon po administration at duration of >6 hr; format: functional
Rattus norvegicus [9] = experiment: Effective dose in rat after intravenous administration; Range is (0.12 - 0.15); format: functional
Canis familiaris [10] = experiment: Inhibitory activity against AII-induced pressor responses in Beagle dogs at a dose of 0.3 upon iv administration at duration of >6 hr; format: functional, Canis lupus familiaris
Canis familiaris [11] = experiment: Effective dose in Beagle dog after peroral administration; Range is (0.52 - 0.64); format: functional; details: Canis lupus familiaris, po
Rattus norvegicus [12] = experiment: Inhibitory activity against AII-induced pressor responses in rats at a dose of 0.3 upon iv administration at duration of >6 hr; format: functional
[13] = molecular target: Angiotensin II receptor (Homo sapiens) (UniProt P30556+P50052); experiment: Ratio of IC50 of AT2/AT1 receptors; format: protein assay
Canis familiaris [14] = experiment: Effective dose in Beagle dog after intravenous administration; Range is (0.025 - 0.029); format: functional; details: Canis lupus familiaris
Rattus norvegicus [15] = experiment: Effective dose in rat after peroral administration; Range is (0.25 - 0.31); format: functional; details: po
Canis familiaris [16] = experiment: Inhibitory activity against AII-induced pressor responses in Beagle dogs at a dose of 1.0 upon po administration at duration of >6 hr; format: functional, Canis lupus familiaris

| Compound | IC50 [1] | IC50 [2] | other results |
| --- | --- | --- | --- |
| CCCCC(=O)Nc1cc2nc(CCCC)n(Cc3ccc(-c4ccccc4S(=O)(=O)NC(=O)CCC4CCCC4)cc3)c2nc1C | 0.31 nM | 0.1 nM | – |
| CCCCCN(C(=O)c1ccccc1)c1ccc2nc(CCC)n(Cc3ccc(-c4ccccc4-c4nn[nH]n4)cc3)c(=O)c2c1 | – | 1 nM | – |
| CCCCOC(=O)NS(=O)(=O)c1ccccc1-c1ccc(Cn2c(CCCC)nc3cc(NC(=O)CCCC)c(C)nc32)cc1 | – | – | ED50 (Rattus norvegicus [3]): 0.014 mg/kg; Max inhibition (Rattus norvegicus [4]): 86%; ED50 (Rattus norvegicus [5]): 0.069 mg/kg; Max inhibition (Canis familiaris [6]): 100%; Max inhibition (Rattus norvegicus [7]): 82% |
| CCCC(=O)Nc1cnc2c(nc(CCC)n2Cc2ccc(-c3ccccc3S(=O)(=O)NC(=O)OCc3ccccc3)cc2)c1C | 0.94 nM | 0.33 nM | Max inhibition (Rattus norvegicus [8]): 58%; ED50 (Rattus norvegicus [9]): 0.13 mg/kg; Max inhibition (Canis familiaris [10]): 100%; ED50 (Canis familiaris [11]): 0.58 mg/kg; Max inhibition (Rattus norvegicus [12]): 85%; Ratio [13]: 2.8; ED50 (Canis familiaris [14]): 0.027 mg/kg; ED50 (Rattus norvegicus [15]): 0.28 mg/kg; Max inhibition (Canis familiaris [16]): 76% |
| CCCC(=O)Nc1c(C)nc2c(nc(CCC)n2Cc2ccc(-c3ccccc3S(=O)(=O)NC(=O)CCC3CCCC3)cc2)c1C | 0.25 nM | 0.26 nM | – |
| CCCCOC(=O)NS(=O)(=O)c1ccccc1-c1ccc(Cn2c(CCC)nc3c(C)c(NC(=O)CCC)cnc32)cc1 | 5.6 nM | 0.51 nM | – |
| CCc1nc2c(C)cc(C)nc2n1Cc1ccc(-c2ccccc2S(=O)(=O)NC(=O)CCC2CCCC2)cc1 | 33 nM | 0.1 nM | – |
| CCCCc1nc2cc(NC(=O)N(c3ccccc3)c3ccccc3)c(C)nc2n1Cc1ccc(-c2ccccc2-c2nn[nH]n2)cc1 | 510 nM | 0.6 nM | – |
| CCCCCC(=O)NS(=O)(=O)c1ccccc1-c1ccc(Cn2c(CCCC)nc3cc(NC(=O)CCCC)cnc32)cc1 | 2.7 nM | 0.37 nM | – |
| CCc1nc2c(C)cc(C)nc2n1Cc1ccc(-c2ccccc2-c2nnn[nH]2)cc1 [L-158809] | > 10000 nM | – | – |
